Source: patent US20190375708A1 (VenatoRx Pharmaceuticals, Inc., priority 2018, published 2019)

Columns and labels:
[1] = In vitro cytotoxicity assay (MTT cell viability) in HepG2 cells; format: cell-based, human; conditions: human
Method in brief: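 Parental HepG2 cells in EMEM + 10% FBS were exposed to compounds (8 half-log dilutions, 30 μM to 1.0 nM) for 7 days at 37 °C, 5% CO2. MTT was then added for 3-4 h, formazan dissolved in DMSO and absorbance read at 492 nm; CC50 came from 4-parameter fits against vehicle controls.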

[2] = tested on: HBV replication in HepAD38 cells; test: Anti-HBV replication assay in HepAD38 cells (QPCR of extracellular HBV DNA); format: cell-based, HBV (genotype D, serotype ayw); conditions: Hepatitis B virus, 168 h, 7 days incubation, extracellular HBV DNA by QPCR, read-out: Anti-HBV EC50
Method in brief: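 Compounds (1 log10 serial dilutions, […]) were left 7 days on tetracycline-free HepAD38 cultures, a HepG2 line with tet-controlled HBV genotype D. EC50 came from 4-parameter regression of percent inhibition versus vehicle, using supernatant HBV DNA copies/mL measured by QPCR.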

Row | Compound | CC50 at 7 days [1] [nM] | EC50 [2] [nM]
1 | Cc1cc(NC(=O)c2c(Cl)c(C(=O)C(=O)N[C@@H](C)C(F)(F)F)n3c2CCCC3)cnc1F [Example 731, (S)-2-chloro-N-(6-fluoro-5-methylpyridin-3-yl)-3-(2-oxo-2-((1,1,1-trifluoropropan-2-yl)amino)acetyl)-5,6,7,8-tetrahydroindolizine-1-carboxamide] | 5000 to 30000 | < 50
2 | O=C(NC1(CO)CCC1)C(=O)c1c(Cl)c(C(=O)Nc2ccc(F)c(F)c2)c2n1CCCC2 [Example 499, 2-chloro-N-(3,4-difluorophenyl)-3-(2-((1-(hydroxymethyl)cyclobutyl)amino)-2-oxoacetyl)-5,6,7,8-tetrahydroindolizine-1-carboxamide] | > 30000 | < 50
3 | Cc1cc(NC(=O)c2c(C)c(C(=O)C(=O)NC3CCSCC3)n(C)c2C)ccc1F [Example 223, N-(4-fluoro-3-methylphenyl)-1,2,4-trimethyl-5-(2-oxo-2-((tetrahydro-2H-thiopyran-4-yl)amino)acetyl)-1H-pyrrole-3-carboxamide] | 5000 to 30000 | < 50
4 | Cc1cc(NC(=O)c2c(C)c(C(=O)C(=O)N[C@]3(C)C[C@H](O)C3)n(C)c2C)ccc1F [Example 267, N-(4-fluoro-3-methylphenyl)-5-(2-(((1s,3s)-3-hydroxy-1-methylcyclobutyl)amino)-2-oxoacetyl)-1,2,4-trimethyl-1H-pyrrole-3-carboxamide] | > 30000 | < 50
5 | Cc1cc(NC(=O)c2c(C)c(C(=O)C(=O)NC(C)c3nn[nH]n3)n(C)c2C)ccc1F (stereo not shown) [Example 79, 5-(2-((1-(2H-tetrazol-5-yl)ethyl)amino)-2-oxoacetyl)-N-(4-fluoro-3-methylphenyl)-1,2,4-trimethyl-1H-pyrrole-3-carboxamide] | > 30000 | 50 to 499
6 | Cc1noc([C@@H](NC(=O)C(=O)c2c(Cl)c(C(=O)Nc3ccc(F)c(C)c3)c3n2CCC3)C(C)C)n1 [Example 543, (S)-6-chloro-N-(4-fluoro-3-methylphenyl)-5-(2-((2-methyl-1-(3-methyl-1,2,4-oxadiazol-5-yl)propyl)amino)-2-oxoacetyl)-2,3-dihydro-1H-pyrrolizine-7-carboxamide] | > 30000 | < 50
7 | CCn1c(C)c(C(=O)Nc2ccc(F)c(C)c2)c(C)c1C(=O)C(=O)NC(C)(C)CO [Example 98, 1-ethyl-N-(4-fluoro-3-methylphenyl)-5-(2-((1-hydroxy-2-methylpropan-2-yl)amino)-2-oxoacetyl)-2,4-dimethyl-1H-pyrrole-3-carboxamide] | > 30000 | < 50
8 | Cc1cc(NC(=O)c2c(C)c(C(=O)C(=O)NOC(C)(C)CO)n(C)c2C)ccc1F [Example 156, N-(4-fluoro-3-methylphenyl)-5-(2-(((1-hydroxy-2-methylpropan-2-yl)oxy)amino)-2-oxoacetyl)-1,2,4-trimethyl-1H-pyrrole-3-carboxamide] | > 30000 | < 50
9 | Cc1cc(NC(=O)c2c(C)c(C(=O)C(=O)N[C@@H](CO)C(=O)O)n(C)c2C)ccc1F [Example 32, (2-(4-((4-fluoro-3-methylphenyl)carbamoyl)-1,3,5-trimethyl-1H-pyrrol-2-yl)-2-oxoacetyl)-L-serine] | > 30000 | > 1000
10 | Cc1cc(NC(=O)c2c(C)c(C(=O)C(=O)NC3(c4nc(-c5cnccn5)no4)CCCCC3)n(C)c2C)ccc1F [Example 631, N-(4-fluoro-3-methylphenyl)-1,2,4-trimethyl-5-(2-oxo-2-((1-(3-(pyrazin-2-yl)-1,2,4-oxadiazol-5-yl)cyclohexyl)amino)acetyl)-1H-pyrrole-3-carboxamide] | > 30000 | < 50
11 | Cc1noc([C@H](C)NC(=O)C(=O)c2c(C)c(C(=O)Nc3ccc(F)c(F)c3)c3n2CCCC3)n1 [Example 464, (S)-N-(3,4-difluorophenyl)-2-methyl-3-(2-((1-(3-methyl-1,2,4-oxadiazol-5-yl)ethyl)amino)-2-oxoacetyl)-5,6,7,8-tetrahydroindolizine-1-carboxamide] | > 30000 | 50 to 499
12 | Cc1noc([C@@H](C)NC(=O)C(=O)c2c(Cl)c(C(=O)Nc3ccc(F)c(Cl)c3)c3n2CCCC3)n1 [Example 524, (R)-2-chloro-N-(3-chloro-4-fluorophenyl)-3-(2-((1-(3-methyl-1,2,4-oxadiazol-5-yl)ethyl)amino)-2-oxoacetyl)-5,6,7,8-tetrahydroindolizine-1-carboxamide] | 5000 to 30000 | 50 to 499
13 | Cc1c(C(=O)Nc2ccc(F)nc2)c(C)n(C)c1C(=O)C(=O)NC1CCc2nc(N)sc2C1 (stereo not shown) [Example 77, 5-(2-((2-amino-4,5,6,7-tetrahydrobenzo[d]thiazol-6-yl)amino)-2-oxoacetyl)-N-(6-fluoropyridin-3-yl)-1,2,4-trimethyl-1H-pyrrole-3-carboxamide] | > 30000 | 50 to 499
14 | O=C(NC1(CO)CC(F)(F)C1)C(=O)c1c(Cl)c(C(=O)Nc2ccc(F)c(F)c2)c2n1CCCC2 [Example 520, 2-chloro-3-(2-((3,3-difluoro-1-(hydroxymethyl)cyclobutyl)amino)-2-oxoacetyl)-N-(3,4-difluorophenyl)-5,6,7,8-tetrahydroindolizine-1-carboxamide] | > 30000 | < 50
15 | Cc1cc(Cl)cc(NC(=O)c2c(C)c(C(=O)C(=O)N[C@H]3CC[C@@H](O)CC3)n(C)c2C)c1 [Example 685, N-(3-chloro-5-methylphenyl)-5-(2-(((1s,4s)-4-hydroxycyclohexyl)amino)-2-oxoacetyl)-1,2,4-trimethyl-1H-pyrrole-3-carboxamide] | > 30000 | < 50
16 | CC[C@H](C)NC(=O)C1(NC(=O)C(=O)c2c(C)c(C(=O)Nc3ccc(F)c(C)c3)c(C)n2C)CCOCC1 [Example 682, (S)-5-(2-((4-(sec-butylcarbamoyl)tetrahydro-2H-pyran-4-yl)amino)-2-oxoacetyl)-N-(4-fluoro-3-methylphenyl)-1,2,4-trimethyl-1H-pyrrole-3-carboxamide] | > 30000 | < 50
17 | Cc1cc(NC(=O)c2c(C)c(C(=O)C(=O)N[C@H]3C[C@@H](O)C3(C)C)n(C)c2C)ccc1F [Example 302, N-(4-fluoro-3-methylphenyl)-5-(2-(((1S,3R)-3-hydroxy-2,2-dimethylcyclobutyl)amino)-2-oxoacetyl)-1,2,4-trimethyl-1H-pyrrole-3-carboxamide] | > 30000 | < 50
18 | Cc1cc(NC(=O)c2c(C)c(C(=O)C(=O)NCCN3CCNC(=O)C3)n(C)c2C)ccc1F [Example 300, N-(4-fluoro-3-methylphenyl)-1,2,4-trimethyl-5-(2-oxo-2-((2-(3-oxopiperazin-1-yl)ethyl)amino)acetyl)-1H-pyrrole-3-carboxamide] | > 30000 | 50 to 499
19 | Cc1cc(NC(=O)c2c(C)c(C(=O)C(=O)NC(C)(C)C)n(C)c2Cl)ccc1F [Example 386, 5-(2-(tert-butylamino)-2-oxoacetyl)-2-chloro-N-(4-fluoro-3-methylphenyl)-1,4-dimethyl-1H-pyrrole-3-carboxamide] | 5000 to 30000 | > 1000
20 | Cc1cc(NC(=O)c2c(C)c(C(=O)C(=O)N[C@H](CO)[C@@H](C)O)n(C)c2C)cnc1F [Example 185, 5-(2-(((2R,3R)-1,3-dihydroxybutan-2-yl)amino)-2-oxoacetyl)-N-(6-fluoro-5-methylpyridin-3-yl)-1,2,4-trimethyl-1H-pyrrole--3 carboxamide] | > 30000 | 500 to 1000
21 | Cc1c(C(=O)Nc2ccnc(F)c2)c(C)n(C)c1C(=O)C(=O)NC(C)(C)C [Example 89, 5-(2-(tert-butylamino)-2-oxoacetyl)-N-(2-fluoropyridin-4-yl)-1,2,4-trimethyl-1H-pyrrole-3-carboxamide] | > 30000 | < 50
22 | Cc1c(C(=O)Nc2cc(F)c(F)c(F)c2)c(C)n(C)c1C(=O)C(=O)Nc1cccnc1 [Example 320, 1,2,4-trimethyl-5-(2-oxo-2-(pyridin-3-ylamino)acetyl)-N-(3,4,5-trifluorophenyl)-1H-pyrrole-3-carboxamide] | > 30000 | < 50
23 | Cc1cc(NC(=O)c2c(C)c(C(=O)C(=O)NC3CCSCC3)n(C)c2C)cnc1F [Example 191, N-(6-fluoro-5-methylpyridin-3-yl)-1,2,4-trimethyl-5-(2-oxo-2-((tetrahydro-2H-thiopyran-4-yl)amino)acetyl)-1H-pyrrole-3-carboxamide] | > 30000 | < 50
24 | Cc1cc(NC(=O)c2c(C)c(C(=O)C(=O)NC34CC5CC(C3)C(O)C(C5)C4)n(C)c2C)ccc1F [Example 59, N-(4-fluoro-3-methylphenyl)-5-(2-(((1s,3R,4s,5S,7s)-4-hydroxyadamantan-1-yl)amino)-2-oxoacetyl)-1,2,4-trimethyl-1H-pyrrole-3-carboxamide] | > 30000 | < 50
25 | Cc1cc(NC(=O)c2c(C)c(C(=O)C(=O)NC(C)(C)C(N)=O)n(CCF)c2C)ccc1F [Example 117, 5-(2-((1-amino-2-methyl-1-oxopropan-2-yl)amino)-2-oxoacetyl)-N-(4-fluoro-3-methylphenyl)-1-(2-fluoroethyl)-2,4-dimethyl-1H-pyrrole-3-carboxamide] | > 30000 | 50 to 499
26 | Cc1cc(NC(=O)c2cc(C(=O)C(=O)NC3(CO)CCC3)n3c2CCCC3)ccc1F [Example 410, N-(4-fluoro-3-methylphenyl)-3-(2-((1-(hydroxymethyl)cyclobutyl)amino)-2-oxoacetyl)-5,6,7,8-tetrahydroindolizine-1-carboxamide] | > 30000 | 50 to 499
